These results are taken from PubChem BioAssay (NCI).

“And” between values parts separate entries of the source, which are not always exact repeats. Identical values can stand only once.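 Exposure lasted 48 hours, with cells grown in 96-well plates and compounds tested at five concentrations. At the TGI there is no net growth.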

Test systems include SF-539 CNS; HCT-116 colon; SNB-19 CNS; UO-31 renal; MDA-MB-231 breast; MDA-MB-435; HCC-2998 colon; HOP-62 NSCLC; MOLT-4 leukemia; EKVX NSCLC.
Common to all, as to experiment: growth of human tumour cells (NCI), 48 h

For the molecule `COc1ccc2nc3c([N+](=O)[O-])ccc4c3c(c2c1)NCCN4CCO`, the TGI is 1.56 µM with SF-539 CNS; 1.22 µM in the experiment with HCT-116 colon; 3.08 µM in the experiment on SNB-19 CNS; 1.47 µM in the experiment with UO-31 renal; 2.05 µM in the experiment on MDA-MB-231 breast; 1.79 µM in the experiment with MDA-MB-435. Besides, the TGI was 1.91 µM with HCC-2998 colon, 2.28 µM in the experiment on HOP-62 NSCLC, 0.806 µM with MOLT-4 leukemia and 2.97 µM in the experiment with EKVX NSCLC.

On to `CC(=O)OCCCOCn1c(Cc2ccccc2)c(C)c(=O)[nH]c1=O`, for which the TGI with SF-539 CNS, in the experiment with HCT-116 colon, in the experiment with SNB-19 CNS, in the experiment on UO-31 renal, in the experiment on MDA-MB-231 breast and in the experiment with MDA-MB-435 was above 100 µM each time. Also, the TGI in the experiment on HCC-2998 colon, in the experiment on HOP-62 NSCLC, in the experiment with MOLT-4 leukemia and in the experiment on EKVX NSCLC was above 100 µM in each case.

Turning to `Cc1cnc2sn(-c3ccc(Oc4ccccc4)cc3)c(=O)c2c1`, the TGI is 31.7 µM with SF-539 CNS; 71.4 µM in the experiment on HCT-116 colon; 46 µM in the experiment with SNB-19 CNS; 42.8 µM in the experiment on UO-31 renal; 37.6 µM with MDA-MB-231 breast; above 100 µM in the experiment with MDA-MB-435. The TGI was 22.8 µM in the experiment on HCC-2998 colon, 36.7 µM in the experiment with HOP-62 NSCLC, above 100 µM in the experiment on MOLT-4 leukemia and 27.7 µM in the experiment on EKVX NSCLC.

Regarding `C[C@H](CCC(=O)NCCS(=O)(=O)O)[C@H]1CC[C@H]2[C@@H]3CC[C@@H]4C[C@H](O)CC[C@]4(C)[C@H]3CC[C@]12C`, the TGI with SF-539 CNS, in the experiment with HCT-116 colon, in the experiment with SNB-19 CNS, with UO-31 renal, in the experiment on MDA-MB-231 breast and with MDA-MB-435 was above 100 µM throughout. In addition, the TGI in the experiment with HCC-2998 colon, in the experiment with HOP-62 NSCLC, with MOLT-4 leukemia and with EKVX NSCLC was above 100 µM throughout.

For the molecule `CCCN(CCCC(NC(C)=O)C(=O)NCc1ccccc1)C(=O)N(CCCl)N=O` (stereo not given), the TGI with SF-539 CNS was 5.95 µM; with HCT-116 colon it was 29 µM; with SNB-19 CNS, above 84.9 µM; in the experiment with UO-31 renal, 50 µM; with MDA-MB-231 breast, above 100 µM; in the experiment on MDA-MB-435, above 100 µM. Moreover, the TGI in the experiment on HCC-2998 colon was found to be 26.4 µM; with HOP-62 NSCLC, 19.8 µM; in the experiment with MOLT-4 leukemia it was 28 µM; with EKVX NSCLC, 59 µM.

For the molecule `O=C(/C=C/c1ccc(O)cc1)c1ccc2c(c1)OCO2`, the TGI with SF-539 CNS was determined as 26.8 µM; with HCT-116 colon, 25.4 µM; in the experiment on SNB-19 CNS, 36.3 µM; with UO-31 renal, 38.8 µM; with MDA-MB-231 breast it was 37.4 µM; in the experiment on MDA-MB-435, 69.5 µM. The TGI in the experiment on HCC-2998 colon was 40.5 µM; in the experiment on HOP-62 NSCLC it was 38.5 µM; in the experiment on MOLT-4 leukemia, 52.3 µM; with EKVX NSCLC it was above 100 µM.

As for `O=S(=O)(O)c1cc(O)c2c(N=Cc3ccccc3O)cc(S(=O)(=O)O)cc2c1`, the TGI in the experiment with SF-539 CNS, in the experiment on HCT-116 colon, in the experiment with SNB-19 CNS, in the experiment with UO-31 renal, in the experiment with MDA-MB-231 breast and in the experiment with MDA-MB-435 was above 100 µM each time. Moreover, the TGI with HCC-2998 colon, with HOP-62 NSCLC, with MOLT-4 leukemia and with EKVX NSCLC was above 100 µM in each case.

With `OC(c1cc2ccccc2o1)c1cc2ccccc2s1` (stereo not given), the TGI in the experiment on SF-539 CNS, in the experiment with HCT-116 colon, in the experiment on SNB-19 CNS, in the experiment with UO-31 renal, in the experiment on MDA-MB-231 breast and with MDA-MB-435 was above 10 µM each time. Also, the TGI with HCC-2998 colon, with HOP-62 NSCLC, in the experiment on MOLT-4 leukemia and in the experiment on EKVX NSCLC was above 10 µM each time.

As for `[N-]=[N+]=C1N=CN=C1c1ncn[nH]1`, the TGI in the experiment on SF-539 CNS was 52.2 µM; in the experiment with HCT-116 colon, above 100 µM; in the experiment with SNB-19 CNS, above 100 µM; with UO-31 renal it was 86.3 µM; in the experiment with MDA-MB-231 breast, above 100 µM; in the experiment with MDA-MB-435 it was above 100 µM. Besides, the TGI with HCC-2998 colon is above 100 µM; with HOP-62 NSCLC, above 100 µM; in the experiment with MOLT-4 leukemia it was 37.1 µM; in the experiment on EKVX NSCLC, above 100 µM.

Consider `CCC(CON(C)c1ccccc1)(SC)SC`, for which the TGI in the experiment on SF-539 CNS, with HCT-116 colon, with SNB-19 CNS, in the experiment with UO-31 renal, in the experiment with MDA-MB-231 breast and in the experiment on MDA-MB-435 was above 100 µM throughout. The TGI in the experiment on HCC-2998 colon, with HOP-62 NSCLC, with MOLT-4 leukemia and in the experiment with EKVX NSCLC was above 100 µM throughout.

In the case of `COC(=O)NCCc1[nH]nc2c1C(=O)C=C(N1CCOCC1)C2=O`, the TGI with SF-539 CNS, in the experiment with HCT-116 colon, in the experiment with SNB-19 CNS, with UO-31 renal, with MDA-MB-231 breast and with MDA-MB-435 was above 100 µM throughout. The TGI in the experiment with HCC-2998 colon, in the experiment with HOP-62 NSCLC, with MOLT-4 leukemia and in the experiment with EKVX NSCLC was above 100 µM throughout.

As to `O=C1CC2(c3ccccc3)ON=C(c3ccccc3)N2c2ccccc2N1` (stereo not given), the TGI is above 100 µM in the experiment on SF-539 CNS; above 100 µM in the experiment on HCT-116 colon; above 100 µM with SNB-19 CNS; above 100 µM in the experiment with UO-31 renal; above 100 µM with MDA-MB-231 breast; 53.2 µM in the experiment with MDA-MB-435. The TGI with HCC-2998 colon, with HOP-62 NSCLC, in the experiment on MOLT-4 leukemia and with EKVX NSCLC was above 100 µM throughout.

For `N#CCc1n[nH]c(Cc2ccccc2)n1`, the TGI in the experiment with SF-539 CNS, with HCT-116 colon, with SNB-19 CNS, in the experiment with UO-31 renal, in the experiment on MDA-MB-231 breast and in the experiment on MDA-MB-435 was above 100 µM throughout. Also, the TGI in the experiment on HCC-2998 colon, in the experiment on HOP-62 NSCLC, in the experiment on MOLT-4 leukemia and with EKVX NSCLC was above 100 µM in each case.

For `Cc1nc(C)c(C(=O)NNC(N)=S)cc1C(=O)NNC(N)=S`, the TGI in the experiment on SF-539 CNS, in the experiment with HCT-116 colon, with SNB-19 CNS, in the experiment with UO-31 renal, in the experiment on MDA-MB-231 breast and in the experiment on MDA-MB-435 was above 100 µM each time. The TGI in the experiment with HCC-2998 colon, in the experiment with HOP-62 NSCLC, in the experiment with MOLT-4 leukemia and in the experiment on EKVX NSCLC was above 100 µM throughout.

`C[C@]12CC[C@H]3[C@@H](CC=C4C[C@@H](N5CCCC5)CC[C@@]43C)[C@@H]1C[C@H](N1CCOCC1)[C@@H]2O`: the TGI in the experiment on SF-539 CNS, in the experiment on HCT-116 colon, in the experiment on SNB-19 CNS, in the experiment with UO-31 renal, in the experiment with MDA-MB-231 breast and with MDA-MB-435 was above 100 µM in each case. The TGI with HCC-2998 colon, with HOP-62 NSCLC, in the experiment with MOLT-4 leukemia and in the experiment with EKVX NSCLC was above 100 µM in each case.

For `COc1ccc2c(CCN)c(C(=O)O)[nH]c2c1`, the TGI in the experiment on SF-539 CNS, in the experiment on HCT-116 colon, in the experiment on SNB-19 CNS, in the experiment on UO-31 renal, in the experiment on MDA-MB-231 breast and in the experiment with MDA-MB-435 was above 100 µM each time. Besides, the TGI in the experiment with HCC-2998 colon, in the experiment on HOP-62 NSCLC, in the experiment with MOLT-4 leukemia and with EKVX NSCLC was above 100 µM each time.

On to `COC(=O)C1Cc2c(OC)ccc(OC)c2CC(C(=O)OC)C1=O` (stereo not given), for which the TGI with SF-539 CNS, in the experiment on HCT-116 colon, in the experiment on SNB-19 CNS, in the experiment on UO-31 renal, with MDA-MB-231 breast and with MDA-MB-435 was above 100 µM throughout. In addition, the TGI with HCC-2998 colon, with HOP-62 NSCLC, with MOLT-4 leukemia and in the experiment with EKVX NSCLC was above 100 µM in each case.

Turning to `CN(C)CCNC(=O)c1cccc2c(NCCN(C)C)c3ccccc3nc12`, the TGI came to 11.3 µM in the experiment with SF-539 CNS; 3.9 µM in the experiment on HCT-116 colon; 26.3 µM in the experiment with SNB-19 CNS; 8.29 µM in the experiment on UO-31 renal; 4.58 µM in the experiment with MDA-MB-231 breast; 7.58 µM in the experiment on MDA-MB-435. Besides, the TGI in the experiment with HCC-2998 colon was found to be 3.73 µM; in the experiment with HOP-62 NSCLC, 13.2 µM; in the experiment with MOLT-4 leukemia, 6.29 µM; in the experiment with EKVX NSCLC, 8.03 µM.

With `CC(=O)OC(/C=C/c1ccccc1)P1(=O)N(CC(C)(C)C)[C@@H]2CCCC[C@H]2N1CC(C)(C)C` (stereo not given in full), the TGI with SF-539 CNS is 21.2 µM and 28.6 µM; in the experiment on HCT-116 colon, 15 µM and 13.4 µM; in the experiment on SNB-19 CNS it was 23.5 µM and 24.2 µM; in the experiment with UO-31 renal, 19.6 µM and 17 µM; in the experiment with MDA-MB-231 breast, 24.4 µM and 20.4 µM; with MDA-MB-435, 28.8 µM and 22.1 µM. The TGI with HCC-2998 colon was 16.1 µM and 8.6 µM; in the experiment with HOP-62 NSCLC, 38.3 µM and 30.3 µM; with MOLT-4 leukemia it was 17.1 µM and 14.7 µM; in the experiment on EKVX NSCLC, 19.1 µM and 18.9 µM.

As to `COC(=O)C(Cc1c(C2Nc3ccccc3C2CC(NC(=O)CNC(C)=O)C(=O)OC)[nH]c2ccccc12)NC(=O)CNC(C)=O` (stereo not given), the TGI in the experiment on SF-539 CNS, with HCT-116 colon, in the experiment on SNB-19 CNS, in the experiment with UO-31 renal, in the experiment with MDA-MB-231 breast and in the experiment with MDA-MB-435 was above 100 µM in each case. Besides, the TGI in the experiment with HCC-2998 colon is above 100 µM; with HOP-62 NSCLC, above 69.8 µM; in the experiment on MOLT-4 leukemia, above 100 µM; with EKVX NSCLC, above 100 µM.

In the case of `Nn1c(COc2cccc(OCc3n[nH]c(=S)n3N)c2)n[nH]c1=S`, the TGI in the experiment with SF-539 CNS, in the experiment on HCT-116 colon, in the experiment on SNB-19 CNS, with UO-31 renal, with MDA-MB-231 breast and in the experiment with MDA-MB-435 was above 100 µM each time. The TGI with HCC-2998 colon is above 100 µM; in the experiment on HOP-62 NSCLC, above 100 µM; in the experiment with MOLT-4 leukemia it was 21.7 µM; in the experiment with EKVX NSCLC, above 100 µM.

Regarding `BrCCCCCOc1ccc(-c2c3ccccc3c(-c3ccc(OCCCCCBr)cc3)c3ccccc23)cc1`, the TGI with SF-539 CNS, in the experiment on HCT-116 colon, in the experiment on SNB-19 CNS, with UO-31 renal, in the experiment on MDA-MB-231 breast and in the experiment with MDA-MB-435 was above 100 µM throughout. The TGI in the experiment on HCC-2998 colon, with HOP-62 NSCLC, with MOLT-4 leukemia and in the experiment on EKVX NSCLC was above 100 µM throughout.
